From patent US20110070232A1, “Combination Therapy with an Antitumor Alkaloid” (Pharma Mar, S.A., priority 2008, published 2011)
pIC50: −log10 of the molar value. Read-outs that look alike come from different tables or passages of the source.

Tests used:
MRI-H-254 tumors = format: in vivo, mice
Protocol: Female athymic nude mice (Harlan Sprague Dawley, Madison, Wis.) were utilized for all experiments. Animals were housed in ventilated rack caging with food and water ad libitum. The mice were acclimated for at least 5 days prior to tumor implantation with tumor fragments.
Treatments were initiated on DPI 20.
(§1) Tumor size measurements were recorded twice weekly from the treatment initiation until the termination of the study.
(§2) Mean, standard deviation and standard error of the mean were determined for tumor volume for all animal groups at all assessments. Student's t test was performed on tumor volumes at each measurement day, including at the end of the study, to determine whether there were any statistically significant differences between combination treatment groups and single monotherapy treatment groups.

[1] = test system: LoVo (colon cancer) cell line; assay: IC50 determination, MIT (tetrazolium) assay, 72 h (Example 18); format: cell-based, human; conditions: 72 hours of drug exposure
Protocol: (§3) Before plating, cell cultures were trypsinized and cell number estimated using an automated flow cytometer.
(§4) Cells were harvested and seeded in 96 well microtiter plates at the appropriate cell density (5,000-10,000 cells) in 150 μL of media and incubated for 24 hours to allow the cells to attach before drug addition.
(§5) After the incubation period (72 hours), 50 μL of MIT solution was added to each microtiter well and incubated for further 8 hours at 37° C. The culture medium was then removed and 50 μl, of DMSO were added to dissolve the MIT crystals. Optical densities were read at 540 nm on spectrophotometer microplate reader.
(§6) IC50 values were calculated from an average of two to four assays for each of the test agents.

[2] = test system: HT-29 (colon cancer) cell line; assay: as above; format: cell-based, human; conditions: HT-29, 72 hours of drug exposure
Protocol: as §3, §4, §5, §6

[3] = test system: Hs746T human gastric carcinoma cell line; assay: IC50 determination, MTS assay, 72 h (Example 1); format: cell-based; conditions: 72 hours of drug exposure
In short: (§7)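 Cells are seeded at 10,000 per well and allowed to attach for 24 h, then exposed to compound for 72 h. Viability is read by MTS/PMS, 4 h at 37 °C, with OD at 490 nm, and referenced to a time-0 plate. IC50 is averaged from two to four assays.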

[4] = test system: AGS human gastric carcinoma cell line; assay: IC50 determination, MTS assay, 72 h (Example 1); format: cell-based; conditions: 72 hours of drug exposure
In short: as §7

[5] = test system: HGC-27 human gastric carcinoma cell line; assay: IC50 determination, MTS assay, 72 h (Example 1); format: cell-based; conditions: 72 hours of drug exposure
In short: as §7

[6] = test system: HCT-116 (colon cancer) cell line; assay: IC50 determination, MIT (tetrazolium) assay, 72 h (Example 18); format: cell-based, human; conditions: HCT-116, 72 hours of drug exposure
Protocol: HCT-116 cells were grown in McCoy's supplemented with 10% Fetal Bovine Serum (FBS), 1% penicillin/streptomycin and 2 mM L-glutamine.
as §3, §4, §5, §6

Hs746T tumors = format: in vivo, mice; conditions: for % T/C on day 14 / % T/C on day 19 / % T/C on day 22 / % T/C on day 26 / % T/C on day 29 / % T/C on day 32 / % T/C on day 39: PM00104 0.90 IV, DPI 14, 21, 28
Protocol: Female athymic nude mice (Harlan Sprague Dawley, Madison, Wis.) were utilized for all experiments. Animals were housed in ventilated rack caging with food and water ad libitum. The mice were acclimated for at least 5 days prior to tumor implantation with a tumor cell suspension.
The tumor model used in these studies was Hs746T cell line, which was obtained from the ATCC (Manassas, Va.).
Treatments were initiated on DPI 14.
as §1, §2

[7] = PM00104 0.90 IV, docetaxel 8 IP, oxaliplatin 4 IP mg/kg/day (G4, G6, G8, G10), DPI 20, 27, 34
[8] = PM00104 0.90 IV, docetaxel 16 IP, oxaliplatin 8 IP mg/kg/day (G2, G3, G5, G7, G9), DPI 20, 27, 34
[9] = docetaxel 8 IP, oxaliplatin 4 IP mg/kg/day (G4, G6, G8, G10)
[10] = docetaxel 16 IP, oxaliplatin 8 IP mg/kg/day (G2, G3, G5, G7, G9)

## O=C1[O][Pt]2([NH][C@@H]3CCCC[C@H]3[NH]2)[O]C1=O [Oxaliplatin, oxaliplatin]
MRI-H-254 tumors; [7]
  % T/C on day 20: 94.5%
  % T/C on day 23: 118.5%
  % T/C on day 27: 113.6%
  % T/C on day 33: 107.6%
  % T/C on day 36: 115.1%
  % T/C on day 40: 115.0%
  % T/C on day 48: 92.4%
MRI-H-254 tumors; [8]
  % T/C on day 20: 95.1%
  % T/C on day 23: 100.9%
  % T/C on day 27: 77.2%
  % T/C on day 30: 81.7%
  % T/C on day 33: 75.0%
  % T/C on day 36: 71.1%
  % T/C on day 40: 67.5%
  % T/C on day 48: 55.9%
MRI-H-254 tumors; day 20, PM00104 0.9 and oxaliplatin 4 mg/kg/day
  % Inhibition: 5.5%
MRI-H-254 tumors; day 20, PM00104 0.9 and oxaliplatin 8 mg/kg/day
  % Inhibition: 4.9%
MRI-H-254 tumors; day 23, PM00104 0.9 and oxaliplatin 4 mg/kg/day
  % Inhibition: −18.5%
MRI-H-254 tumors; day 23, PM00104 0.9 and oxaliplatin 8 mg/kg/day
  % Inhibition: −0.9%
MRI-H-254 tumors; day 27, PM00104 0.9 and oxaliplatin 4 mg/kg/day
  % Inhibition: −13.6%
MRI-H-254 tumors; day 27, PM00104 0.9 and oxaliplatin 8 mg/kg/day
  % Inhibition: 22.8%
MRI-H-254 tumors; day 30, PM00104 0.9 and oxaliplatin 4 mg/kg/day
  % Inhibition: −17.1%
MRI-H-254 tumors; day 30, PM00104 0.9 and oxaliplatin 8 mg/kg/day
  % Inhibition: 18.3%
MRI-H-254 tumors; day 33, PM00104 0.9 and oxaliplatin 4 mg/kg/day
  % Inhibition: −7.6%
MRI-H-254 tumors; day 33, PM00104 0.9 and oxaliplatin 8 mg/kg/day
  % Inhibition: 25.0%
MRI-H-254 tumors; day 36, PM00104 0.9 and oxaliplatin 4 mg/kg/day
  % Inhibition: −15.1%
MRI-H-254 tumors; day 36, PM00104 0.9 and oxaliplatin 8 mg/kg/day
  % Inhibition: 28.9%
MRI-H-254 tumors; day 40, PM00104 0.9 and oxaliplatin 4 mg/kg/day
  % Inhibition: −15.0%
MRI-H-254 tumors; day 40, PM00104 0.9 and oxaliplatin 8 mg/kg/day
  % Inhibition: 32.5%
MRI-H-254 tumors; day 48, PM00104 0.9 and oxaliplatin 4 mg/kg/day
  % Inhibition: 7.6%
MRI-H-254 tumors; day 48, PM00104 0.9 and oxaliplatin 8 mg/kg/day
  % Inhibition: 44.1%
[1]
  pIC50: 5.49
[2]
  pIC50: 4.42
[3]
  IC50: 8.14 µg/mL
[4]
  IC50: 0.289 µg/mL
[5]
  IC50: 0.192 µg/mL
[6]
  pIC50: 3.85
Hs746T tumors; [9]
  % T/C on day 14: 99.9%
  % T/C on day 19: 79.9%
  % T/C on day 22: 83.8%
  % T/C on day 26: 78.6%
  % T/C on day 29: 84.2%
  % T/C on day 32: 87.5%
  % T/C on day 39: 108.4%
Hs746T tumors; [10]
  % T/C on day 14: 99.6%
  % T/C on day 19: 83.5%
  % T/C on day 22: 84.9%
  % T/C on day 26: 89.1%
  % T/C on day 29: 84.5%
  % T/C on day 32: 91.2%
  % T/C on day 39: 102.9%
Hs746T tumors; day 14, PM00104 0.9 and oxaliplatin 4 mg/kg/day
  % Inhibition: 0.1%
Hs746T tumors; day 14, PM00104 0.9 and oxaliplatin 8 mg/kg/day
  % Inhibition: 0.4%
Hs746T tumors; day 19, PM00104 0.9 and oxaliplatin 4 mg/kg/day
  % Inhibition: 20.1%
Hs746T tumors; day 19, PM00104 0.9 and oxaliplatin 8 mg/kg/day
  % Inhibition: 16.5%
Hs746T tumors; day 22, PM00104 0.9 and oxaliplatin 4 mg/kg/day
  % Inhibition: 16.2%
Hs746T tumors; day 22, PM00104 0.9 and oxaliplatin 8 mg/kg/day
  % Inhibition: 15.1%
Hs746T tumors; day 26, PM00104 0.9 and oxaliplatin 4 mg/kg/day
  % Inhibition: 21.4%
Hs746T tumors; day 26, PM00104 0.9 and oxaliplatin 8 mg/kg/day
  % Inhibition: 10.9%
Hs746T tumors; day 29, PM00104 0.9 and oxaliplatin 4 mg/kg/day
  % Inhibition: 15.8%
Hs746T tumors; day 29, PM00104 0.9 and oxaliplatin 8 mg/kg/day
  % Inhibition: 15.5%
Hs746T tumors; day 32, PM00104 0.9 and oxaliplatin 4 mg/kg/day
  % Inhibition: 12.5%
Hs746T tumors; day 32, PM00104 0.9 and oxaliplatin 8 mg/kg/day
  % Inhibition: 8.8%
Hs746T tumors; day 39, PM00104 0.9 and oxaliplatin 4 mg/kg/day
  % Inhibition: −8.4%
Hs746T tumors; day 39, PM00104 0.9 and oxaliplatin 8 mg/kg/day
  % Inhibition: −2.9%
